Key:
[1] = Plasma DOAC concentration in ADAGE patients (chromogenic anti-FXa assay for rivaroxaban and apixaban; anti-FIIa Hemoclot assay for dabigatran); format: in vivo, human; details: for DOAC concentration, median (IQR): ADAGE patients ≥80 y, reduced dose: rivaroxaban 15 mg once daily, apixaban 2.5 mg twice daily, dabigatran 110 mg twice daily; for DOAC concentration, range: ADAGE patients, reduced dose (regimens as E1)
Description: (§1) ADAGE is an academic, prospective, observational multicenter study (NCT 02464488; for details, see Foulon-Pinto et al.). We recruited hospitalized patients from the university hospital’s geriatric department (Assistance Publique-Hôpitaux de Paris, Paris, France). […] The DOAC dose regimen was at the discretion of the physician. Exclusion criteria included any acute, unstable comorbid condition or an estimated life expectancy of a few weeks. Sampling (see below) and last DOAC intake times were recorded on a standardized request form. Sampling time points were at the discretion of the physicians over a period of 20 days following inclusion. Time points were classified according to the time elapsed from the last oral intake (T, hours) for patients receiving rivaroxaban. T1 to T4 corresponded to peak time (Tmax), and T20 to T24 corresponded to trough (Tmin). […] Physicians prospectively collected demographic, clinical, and laboratory data (including creatinine clearance [CrCl] calculated with the Cockcroft–Gault formula). The study was approved by the institutionnel Ethics Committee (Comité consultatif de protection des personnes pour la recherche biomédicale–Île-de-France-6–number 15.074bis). All participants gave written informed consent to participate in the study. Only patients for whom remaining plasma aliquots were available were included in the present study.
(§2) Tubes were sent to each centre’s laboratory within 2 hours after sampling and immediately double-centrifuged for 15 minutes at 2000 × g at 15 to 22 °C to obtain platelet-poor plasma. Plasma samples (500 μL aliquots) were stored at −80 °C prior to shipment on dry ice for central analysis (Haematology Laboratory, Hôpital Lariboisière). Plasma samples were thawed for 3 to 5 minutes in a 37 °C water bath just before testing.
Dedicated calibrations and controls were used. The lower limit of quantification was 20 ng/mL for the 3 assays.

fibrin clot formation [2] = test: Thrombodynamics-4D fibrinography in plasma samples from ADAGE patients on DOACs; format: in vivo, human; details: for CS (clot size at 30 minutes), median (IQR) / CS (clot size at 30 minutes), range / D (clot density), median (IQR) / D (clot density), range / Fibrinography Tlag (lag time), median (IQR) / Fibrinography Tlag (lag time), range / Initial rate of clot growth (Vi), median (IQR) / Initial rate of clot growth (Vi), range / Time to Tsp (spontaneous clotting), median (IQR) / Time to Tsp (spontaneous clotting), range: ADAGE patients, reduced dose (regimens as E1)
Description: as §1, §2
(§3) The TD-4D assay was performed centrally using the Thrombodynamics analyzer system (Hemacore, Diapharma) with the TD-4D PLS dedicated kit (Hemacore, Diapharma). The system simultaneously measures spatiotemporal parameters of fibrin clot formation (fibrinography) and TG process (thrombography) in a thin layer of unstirred plasma. Briefly, 120 μL of platelet-poor plasma is added to a microcuvette containing corn trypsin inhibitor to prevent contribution of contact phase activation, then 5 μL of phospholipid solution (manufacturer’s reagent) is added. After incubation for 15 minutes at 37 °C in the Thrombodynamics device, the mixture is transferred to a second microcuvette containing calcium ions, and then immediately transferred to the measurement cuvette. Finally, the activator insert, whose surface is coated with immobilized tissue factor (100 pmol/m^2), is then transferred to the cuvette. The process of fibrin clot formation is recorded in a time-lapse video-microscopy mode using a dark-field light scattering method. Simultaneously, the system monitors TG by fluorimetry, based on the ability of thrombin to cleave a fluorogenic substrate, 7-amino-4-methylcoumarin (AMC) bound to a short amino acid sequence (Arg-Gly-Gly). The rate of AMC formation is proportional to local thrombin concentration. The microcuvette is maintained at 37 °C and is illuminated with red (625 nm) or ultra-violet (365 nm) light emitting diodes. Clot growth is detected with red light scattering, while AMC fluorescence is detected with UV. Scattered red light and fluorescence passing through the macro lens are recorded by a charge-coupled device system. Images under red and blue light are acquired once per minute. The whole analysis lasts 1 hour. The Thrombodynamics software (Hemacore, Diapharma) calculates parameters of spatiotemporal dynamics of fibrin clot formation and TG [40, 46]. […]

thrombin generation [3] = test: Thrombodynamics-4D thrombography in plasma samples from ADAGE patients on DOACs; format: in vivo, human; details: for ETP (endogenous thrombin potential, ETP_ATG), median (IQR) / ETP (endogenous thrombin potential, ETP_ATG), range / Thrombin peak height (Cmax_ATG), median (IQR) / Thrombin peak height (Cmax_ATG), range / Thrombography Tlag (Lag_ATG), median (IQR) / Thrombography Tlag (Lag_ATG), range / Time to peak (Tmax_ATG), median (IQR) / Time to peak (Tmax_ATG), range: ADAGE patients, reduced dose (regimens as E1)
Description: as §1, §2, §3

fibrin clot formation [4] = test: Thrombodynamics-4D fibrinography in pooled normal plasma (Cryocheck) spiked with DOACs; format: biochemical, human; details: 0 to 1000 nM, mainly at low DOAC concentrations
Method: (§4) Frozen pooled normal plasma samples (Cryocheck-Cryopep) were spiked with increasing concentrations of DOACs (0-450 ng/mL), as previously described. […] were kindly provided by Bristol Myers Squibb/Pfizer, Bayer Healthcare, and Boehringer Ingelheim, respectively.
The TD-4D assay was performed centrally using the Thrombodynamics analyzer system (Hemacore, Diapharma) with the TD-4D PLS dedicated kit (Hemacore, Diapharma). The system simultaneously measures spatiotemporal parameters of fibrin clot formation (fibrinography) and TG process (thrombography) in a thin layer of unstirred plasma. Briefly, 120 μL of platelet-poor plasma is added to a microcuvette containing corn trypsin inhibitor to prevent contribution of contact phase activation, then 5 μL of phospholipid solution (manufacturer’s reagent) is added. […] The process of fibrin clot formation is recorded in a time-lapse video-microscopy mode using a dark-field light scattering method. […] Clot growth is detected with red light scattering, while AMC fluorescence is detected with UV. Scattered red light and fluorescence passing through the macro lens are recorded by a charge-coupled device system. […]
(§5) The following fibrinography parameters were recorded (see Supplementary Table 1): (i) lag time (Tlag, minutes); (ii) initial rate of clot growth (Vi, μm/min); (iii) rate of clot growth (V, μm/min); (iv) clot size (CS, μm) measured at 30 minutes; (v) clot density (D, arbitrary units); (vi) time to spontaneous clotting (Tsp, minutes). The following thrombography parameters (at the near-activator area) were recorded (see Supplementary Table 1): (i) Tlag (minutes); (ii) time to thrombin peak (minutes); (iii) maximal thrombin concentration (ie, thrombin peak height, Cmax_ATG, AU/L); (iv) endogenous thrombin potential (ETP_ATG, AU⋅min/L); (v) stationary amplitude of moving peak of thrombin (Ast, AU/L); (vi) rate of thrombin peak propagation (μm/min; see Supplementary Videos 1–3).

thrombin generation [5] = test: Thrombodynamics-4D thrombography in pooled normal plasma (Cryocheck) spiked with DOACs; format: biochemical, human
Method: as §4
as §3, with “minute.” for “minute. The whole analysis lasts 1 hour. The Thrombodynamics software (Hemacore, Diapharma) calculates parameters of spatiotemporal dynamics of fibrin clot formation and TG [40, 46].”
as §5

[6] = all ADAGE patient samples, any time point and dose
[7] = all ADAGE patient samples, Spearman
[8] = univariate analysis, Tmax, line marked Halving
[9] = univariate analysis, Tmin, line marked Halving

- DOAC concentration, median (IQR) ([1]; Tmax (peak)): 248 (181-397) ng/mL
- DOAC concentration, range ([1]; Tmax (peak)): 64 to 676 ng/mL
- DOAC concentration, median (IQR) ([1]; Tmin (trough)): 42 (27-69) ng/mL
- DOAC concentration, range ([1]; Tmin (trough)): 20 to 149 ng/mL
- DOAC plasma concentration, lower end of range [1, 6]: < 20 ng/mL
- DOAC plasma concentration, upper end of range [1, 6]: 676 ng/mL
SMILES: O=C(NC[C@H]1CN(c2ccc(N3CCOCC3=O)cc2)C(=O)O1)c1ccc(Cl)s1 [Rivaroxaban]
- CS (clot size at 30 minutes), median (IQR) (fibrin clot formation [2]; Tmax (peak)): 1236 (1112-1393) μm
- CS (clot size at 30 minutes), range (fibrin clot formation [2]; Tmax (peak)): 1019-1759 μm
- D (clot density), median (IQR) (fibrin clot formation [2]; Tmax (peak)): 23,230 (20,060-28,420) a.u.
- D (clot density), range (fibrin clot formation [2]; Tmax (peak)): 14,690-33,710 a.u.
- Fibrinography Tlag (lag time), median (IQR) (fibrin clot formation [2]; Tmax (peak)): 2.0 (1.7-2.6) min
- Fibrinography Tlag (lag time), range (fibrin clot formation [2]; Tmax (peak)): 1.3 to 4.7 min
- Initial rate of clot growth (Vi), median (IQR) (fibrin clot formation [2]; Tmax (peak)): 60.6 (56.2-65.3) μm/min
- Initial rate of clot growth (Vi), range (fibrin clot formation [2]; Tmax (peak)): 45.0-84.6 μm/min
- Time to Tsp (spontaneous clotting), median (IQR) (fibrin clot formation [2]; Tmax (peak)): 18.5 (11.4-31.6) min
- Time to Tsp (spontaneous clotting), range (fibrin clot formation [2]; Tmax (peak)): 7.7 to 58.1 min
- CS (clot size at 30 minutes), median (IQR) (fibrin clot formation [2]; Tmin (trough)): 1691 (1632-1734) μm
- CS (clot size at 30 minutes), range (fibrin clot formation [2]; Tmin (trough)): 1276-2029 μm
- D (clot density), median (IQR) (fibrin clot formation [2]; Tmin (trough)): 23,940 (20,550-30,160) a.u.
- D (clot density), range (fibrin clot formation [2]; Tmin (trough)): 18,160-37,370 a.u.
- Fibrinography Tlag (lag time), median (IQR) (fibrin clot formation [2]; Tmin (trough)): 1.2 (1.0-1.4) min
- Fibrinography Tlag (lag time), range (fibrin clot formation [2]; Tmin (trough)): 0.8 to 2.1 min
- Initial rate of clot growth (Vi), median (IQR) (fibrin clot formation [2]; Tmin (trough)): 70.4 (64.9-75.8) μm/min
- Initial rate of clot growth (Vi), range (fibrin clot formation [2]; Tmin (trough)): 56.5-87.1 μm/min
- Time to Tsp (spontaneous clotting), median (IQR) (fibrin clot formation [2]; Tmin (trough)): 10.9 (7.1-23.1) min
- Time to Tsp (spontaneous clotting), range (fibrin clot formation [2]; Tmin (trough)): 3.2 to 42.3 min
- Change of CS (clot size) with increasing concentrations (fibrin clot formation [2]; all ADAGE patient samples): decreased
- Association of D (clot density) with DOAC concentration (fibrin clot formation [2]; [7]): not
- Relationship between time to spontaneous clot formation (Tsp) and DOAC levels (fibrin clot formation [2]; [7]): no relationship
- Effect of DOAC concentration at Tmax (βC.pic) on fibrinography initial velocity of clot formation (fibrin clot formation [2]; [8]): ≈ −0.001769%
- Effect of DOAC concentration at Tmin (βC.res) on fibrinography initial velocity of clot formation (fibrin clot formation [2]; [9]): ≈ 0.08094%
- ETP (endogenous thrombin potential, ETP_ATG), median (IQR) (thrombin generation [3]; Tmax (peak)): 1391 (1176-1774) AU⋅min/L
- ETP (endogenous thrombin potential, ETP_ATG), range (thrombin generation [3]; Tmax (peak)): 601-2371 AU⋅min/L
- Thrombin peak height (Cmax_ATG), median (IQR) (thrombin generation [3]; Tmax (peak)): 203 (140-268) AU/L
- Thrombin peak height (Cmax_ATG), range (thrombin generation [3]; Tmax (peak)): 64-371 AU/L
- Thrombography Tlag (Lag_ATG), median (IQR) (thrombin generation [3]; Tmax (peak)): 1.1 (0.8-1.5) min
- Thrombography Tlag (Lag_ATG), range (thrombin generation [3]; Tmax (peak)): 0.6 to 3.9 min
- Time to peak (Tmax_ATG), median (IQR) (thrombin generation [3]; Tmax (peak)): 3.1 (2.6-3.8) min
- Time to peak (Tmax_ATG), range (thrombin generation [3]; Tmax (peak)): 2.6 to 7.1 min
- ETP (endogenous thrombin potential, ETP_ATG), median (IQR) (thrombin generation [3]; Tmin (trough)): 1832 (1322-2480) AU⋅min/L
- ETP (endogenous thrombin potential, ETP_ATG), range (thrombin generation [3]; Tmin (trough)): 557-3572 AU⋅min/L
- Thrombin peak height (Cmax_ATG), median (IQR) (thrombin generation [3]; Tmin (trough)): 289 (254-422) AU/L
- Thrombin peak height (Cmax_ATG), range (thrombin generation [3]; Tmin (trough)): 132- 544 AU/L
- Thrombography Tlag (Lag_ATG), median (IQR) (thrombin generation [3]; Tmin (trough)): 0.2 (0.1-0.4) min
- Thrombography Tlag (Lag_ATG), range (thrombin generation [3]; Tmin (trough)): 0.1 to 0.9 min
- Time to peak (Tmax_ATG), median (IQR) (thrombin generation [3]; Tmin (trough)): 2.1 (1.6-2.1) min
- Time to peak (Tmax_ATG), range (thrombin generation [3]; Tmin (trough)): 1.6 to 3.1 min
- Change of ETP_ATG with increasing DOAC plasma concentrations (thrombin generation [3]; all ADAGE patient samples): decreased
- Effect of DOAC concentration at Tmax (βC.pic) on thrombography peak height (PH) (thrombin generation [3]; [8]): ≈ 0.1032%
- Effect of DOAC concentration at Tmin (βC.res) on thrombography peak height (PH) (thrombin generation [3]; [9]): ≈ 0.238%
- Samples in which spontaneous clotting occurred (fibrin clot formation [4]): 14%
- Change of Ast (stationary amplitude of thrombin moving peak) with increasing concentrations (thrombin generation [5]): not
